Data reported in PubChem BioAssay (NCI).
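Cultured in 96-well plates, cells were exposed to test compound for 48 hours across five concentrations. Abbreviation: GI50, concentration required for 50% inhibition of growth. At the TGI there is no net growth.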

Columns and labels:
Experiment in all cases: inhibition of tumour cell growth, NCI panel, 48 h
A498 renal = test system: A498 renal
IGROV1 ovarian = test system: IGROV1 ovarian
MCF7 breast = test system: MCF7 breast
MDA-MB-435 = test system: MDA-MB-435
NCI-H23 lung = test system: NCI-H23 lung
OVCAR-4 ovarian = test system: OVCAR-4 ovarian
OVCAR-8 ovarian = test system: OVCAR-8 ovarian
PC-3 prostate = test system: PC-3 prostate

Structure (SMILES)	GI50 (A498 renal) [µM]	TGI (A498 renal) [µM]	GI50 (IGROV1 ovarian) [µM]	TGI (IGROV1 ovarian) [µM]	GI50 (MCF7 breast) [µM]	TGI (MCF7 breast) [µM]	GI50 (MDA-MB-435) [µM]	TGI (MDA-MB-435) [µM]	GI50 (NCI-H23 lung) [µM]	TGI (NCI-H23 lung) [µM]	GI50 (OVCAR-4 ovarian) [µM]	TGI (OVCAR-4 ovarian) [µM]	GI50 (OVCAR-8 ovarian) [µM]	TGI (OVCAR-8 ovarian) [µM]	GI50 (PC-3 prostate) [µM]	TGI (PC-3 prostate) [µM]
Cc1[nH]nc2ccc3nc(-c4ccc5[nH]ncc5c4)c4c(c3c12)CCCC4	0.28	1.8	0.492	7.14	3.54	17.1	1.23	12.9	2.22	11.2	2.12	28	1.15	13.2	2.86	23.6
CC(=O)OC1Oc2cc(C)c(C)cc2-c2oc(=O)c(-c3ccc(F)cc3)cc21 (stereo not given)	5.06	67.4	7.94	85.2	3.08	20.1	1.59	4.21	4.41	42.7	11.3	63.9	6.67	> 100	9.67	39.8
O=C1CCC(N2Cc3c(C#CCCCNC(=O)c4cc5c(o4)C(=O)c4ccccc4C5=O)cccc3C2=O)C(=O)N1 (stereo not given)	14.2	27.5	4.03	17.2	1.63	3.73	1.81	3.27	1.58	4.44	1.88	4.73	3.24	87	2.95	56.2
Cc1ccc(-c2nc(N)c(C#N)c3c2CCOc2c-3ccc3ccccc23)cc1	0.0794	0.609	0.359	> 100	0.284	> 34.4	0.0309	0.459	0.521	66.7	16.3	> 79.5	2.28	27.8	0.186	7.51
O=C(Cc1ccccc1)NC(c1ccc(Cl)cc1)c1c(O)ccc2ccccc12 (stereo not given)	0.985	7.72	4.67	18.3	2.66	9.37	2.91	10.7	2.92	9.2	2.73	10.2	3.56	16.9	3.19	10.6
COc1cc(/C=C2\C(=O)N(c3ccccc3)c3ccccc32)cc(OC)c1OC	18.1	38.9	6.61	32	8.05	> 100	5.85	36.6	9.79	30.1	10.4	23.7	8.83	45.5	3.13	16.1
COc1ccc2cc(Cn3cc[n+](Cc4ccc5ccccc5c4)c3)ccc2c1	1.03	9.13	1.75	4.87	2.57	9.88	1.79	4.12	2.37	12	2.27	8.06	3.26	13.1	2.13	9.17
COc1ccc2c(c1)/C(=C\c1c(Cl)n(C)c3ccccc13)C(=O)N2	0.611	4.31	0.561		0.682	> 38.7	0.286	1.26	1.99	11.4	7.07	> 100	1.89	11.9	1.33	> 36.8
CSC1=Nc2c(c(C)c(C)n2COC(CO)CO)C2=NC(=O)CC(C)N12 (stereo not given)	> 100	> 100	> 100	> 100	> 100	> 100	> 100	> 100	> 100	> 100	> 100	> 100	> 100	> 100	> 100	> 100
COc1ccc(-c2nc(N3CCOCC3)c3sc(CN(C)c4ncc(C(=O)NO)cn4)cc3n2)cn1	< 0.0155	0.0544	< 0.01	0.0439	< 0.01	0.366	< 0.01	0.0284	0.0103	0.601	0.0147	1.82	< 0.01	0.222	< 0.01	0.112
CC(C)n1c(=O)n(C)c2cnc3cc(F)c(-c4ccc(OCCCN5CCCCC5)nc4)cc3c21	3.78	14	8.18	41.9	7.46	21.6	17	71.4	16.5	> 100	9.08	56.5	14.9	> 100	6.94	37.1
